In patent US10611747B2, “Pyrone based compounds for treating bacterial infections” (FORGE THERAPEUTICS, INC., priority 2015, dated 2020):
Values after ≈ are worked out from the molar mass of the structure shown.

Legend:
Test in all cases: Bacterial susceptibility testing (MIC, broth microdilution)
Format in all cases: cell-based
S. aureus ATCC 29213 = conditions: Staphylococcus aureus, ATCC29213; broth microdilution, 35° C., 18-24 h; read-out: MIC S. aureus ATCC 29213
Experimental: (§1) Minimal inhibitory concentrations (MIC) were determined by the broth microdilution method in accordance with the Clinical and Laboratory Standards Institute (CLSI) guidelines. In brief, organism suspensions were adjusted to a 0.5 McFarland standard to yield a final inoculum between 3×10^5 and 7×10^5 colony-forming units (CFU)/mL. Drug dilutions and inocula were made in sterile, cation adjusted Mueller-Hinton Broth (Beckton Dickinson). An inoculum volume of 100 μL was added to wells containing 100 μL of broth with 2-fold serial dilutions of drug. All inoculated microdilution trays were incubated in ambient air at 35° C. for 18-24 h. […] Performance of the assay was monitored by the use of laboratory quality-control strains and levofloxacin, a compound with a defined MIC spectrum, in accordance with CLSI guidelines.

P. aeruginosa 209 = conditions: Pseudomonas aeruginosa, 209; broth microdilution, 35° C., 18-24 h; read-out: MIC P. aeruginosa 209
Experimental: as §1

E. coli delta tolC = conditions: Escherichia coli, 24 h, read-out: MIC E. coli delta tolC
Experimental: as §1

E. coli BW25113 = conditions: Escherichia coli, no FBS, 35° C., 18-24 h
Experimental: as §1

E. coli ATCC 25922 = conditions: Escherichia coli, ATCC25922; no FBS; broth microdilution, 35° C., 18-24 h; read-out: MIC E. coli ATCC 25922-no FBS
Experimental: as §1

[1] = system: P. aeruginosa 210 delta mexAB-OprM; conditions: Pseudomonas aeruginosa, read-out: MIC P. aeruginosa 210 delta mexAB-OprM
Experimental: as §1

E. coli imp mutant = conditions: Escherichia coli, read-out: MIC E. coli imp mutant
Experimental: as §1

## O=C(c1ccc(C#CC#Cc2ccc(NCc3occc(=O)c3O)cc2)cc1)N1C[C@H]2C[C@@H]1CO2 [Compound 36]
S. aureus ATCC 29213
  MIC: > 32 µg/mL
P. aeruginosa 209
  MIC: > 32 µg/mL
E. coli delta tolC
  MIC: < 1 µg/mL
E. coli BW25113
  MIC: 1 to 8 µg/mL (≈ 2.14 to 17.1 µM)
E. coli ATCC 25922
  MIC: 8 to 32 µg/mL (≈ 17.1 to 68.6 µM)
[1]
  MIC: > 32 µg/mL
E. coli imp mutant
  MIC: 1 to 8 µg/mL (≈ 2.14 to 17.1 µM)

## CN(C)[C@@H]1CCN(C(=O)c2ccc(C#CC#Cc3ccc(NCc4occc(=O)c4O)cc3)cc2)C1 [Compound 37]
S. aureus ATCC 29213
  MIC: > 32 µg/mL
P. aeruginosa 209
  MIC: > 32 µg/mL
E. coli delta tolC
  MIC: < 1 µg/mL
E. coli BW25113
  MIC: 1 to 8 µg/mL (≈ 2.08 to 16.6 µM)
E. coli ATCC 25922
  MIC: 1 to 8 µg/mL (≈ 2.08 to 16.6 µM)
[1]
  MIC: > 32 µg/mL
E. coli imp mutant
  MIC: 1 to 8 µg/mL (≈ 2.08 to 16.6 µM)

## CN1CC2CN(C(=O)c3ccc(C#CC#Cc4ccc(NCc5occc(=O)c5O)cc4)cc3)CC2C1 (stereo not drawn) [Compound 41]
S. aureus ATCC 29213
  MIC: > 32 µg/mL
P. aeruginosa 209
  MIC: > 32 µg/mL
E. coli delta tolC
  MIC: < 1 µg/mL
E. coli BW25113
  MIC: 1 to 8 µg/mL (≈ 2.03 to 16.2 µM)
E. coli ATCC 25922
  MIC: 1 to 8 µg/mL (≈ 2.03 to 16.2 µM)
[1]
  MIC: 8 to 32 µg/mL (≈ 16.2 to 64.8 µM)
E. coli imp mutant
  MIC: 1 to 8 µg/mL (≈ 2.03 to 16.2 µM)

## CN1CC2CN(C(=O)c3ccc(C#CC#Cc4ccc(NCc5occc(=O)c5O)cc4)cc3)C[C@@H]2C1 (stereo partly drawn) [Compound 42]
S. aureus ATCC 29213
  MIC: > 32 µg/mL
P. aeruginosa 209
  MIC: > 32 µg/mL
E. coli delta tolC
  MIC: < 1 µg/mL
E. coli BW25113
  MIC: 1 to 8 µg/mL (≈ 2.03 to 16.2 µM)
E. coli ATCC 25922
  MIC: 1 to 8 µg/mL (≈ 2.03 to 16.2 µM)
[1]
  MIC: 8 to 32 µg/mL (≈ 16.2 to 64.8 µM)
E. coli imp mutant
  MIC: 1 to 8 µg/mL (≈ 2.03 to 16.2 µM)

## O=C(c1ccc(C#CC#Cc2ccc(NCc3occc(=O)c3O)cc2)cc1)N1CCN2CCCC2C1 (stereo not drawn) [Compound 43]
S. aureus ATCC 29213
  MIC: > 32 µg/mL
P. aeruginosa 209
  MIC: > 32 µg/mL
E. coli delta tolC
  MIC: < 1 µg/mL
E. coli BW25113
  MIC: 1 to 8 µg/mL (≈ 2.03 to 16.2 µM)
E. coli ATCC 25922
  MIC: 1 to 8 µg/mL (≈ 2.03 to 16.2 µM)
[1]
  MIC: 8 to 32 µg/mL (≈ 16.2 to 64.8 µM)
E. coli imp mutant
  MIC: 1 to 8 µg/mL (≈ 2.03 to 16.2 µM)

## O=C(NCCO)c1ccc(C#CC#Cc2ccc(NCc3occc(=O)c3O)cc2)cc1 [Compound 44]
S. aureus ATCC 29213
  MIC: > 32 µg/mL
P. aeruginosa 209
  MIC: > 32 µg/mL
E. coli delta tolC
  MIC: < 1 µg/mL
E. coli BW25113
  MIC: 1 to 8 µg/mL (≈ 2.33 to 18.7 µM)
E. coli ATCC 25922
  MIC: 1 to 8 µg/mL (≈ 2.33 to 18.7 µM)
[1]
  MIC: 8 to 32 µg/mL (≈ 18.7 to 74.7 µM)
E. coli imp mutant
  MIC: < 1 µg/mL

## O=C(c1ccc(C#CC#Cc2ccc(NCc3occc(=O)c3O)cc2)cc1)N1CCC(O)C1 (stereo not drawn) [Compound 45]
S. aureus ATCC 29213
  MIC: > 32 µg/mL
P. aeruginosa 209
  MIC: > 32 µg/mL
E. coli delta tolC
  MIC: < 1 µg/mL
E. coli BW25113
  MIC: 1 to 8 µg/mL (≈ 2.2 to 17.6 µM)
E. coli ATCC 25922
  MIC: 1 to 8 µg/mL (≈ 2.2 to 17.6 µM)
[1]
  MIC: 8 to 32 µg/mL (≈ 17.6 to 70.4 µM)
E. coli imp mutant
  MIC: < 1 µg/mL

## O=C(NCCN1CCOCC1)c1ccc(C#CC#Cc2ccc(NCc3occc(=O)c3O)cc2)cc1 [Compound 46]
S. aureus ATCC 29213
  MIC: > 32 µg/mL
P. aeruginosa 209
  MIC: > 32 µg/mL
E. coli delta tolC
  MIC: < 1 µg/mL
E. coli BW25113
  MIC: 1 to 8 µg/mL (≈ 2.01 to 16.1 µM)
E. coli ATCC 25922
  MIC: 8 to 32 µg/mL (≈ 16.1 to 64.3 µM)
[1]
  MIC: > 32 µg/mL
E. coli imp mutant
  MIC: 1 to 8 µg/mL (≈ 2.01 to 16.1 µM)

## O=C(c1ccc(C#CC#Cc2ccc(NCc3occc(=O)c3O)cc2)cc1)N1CCNCC1 [Compound 48]
S. aureus ATCC 29213
  MIC: > 32 µg/mL
P. aeruginosa 209
  MIC: > 32 µg/mL
E. coli delta tolC
  MIC: < 1 µg/mL
E. coli BW25113
  MIC: 1 to 8 µg/mL (≈ 2.21 to 17.6 µM)
E. coli ATCC 25922
  MIC: 1 to 8 µg/mL (≈ 2.21 to 17.6 µM)
[1]
  MIC: 8 to 32 µg/mL (≈ 17.6 to 70.6 µM)
E. coli imp mutant
  MIC: 1 to 8 µg/mL (≈ 2.21 to 17.6 µM)

## N[C@@H]1CN(C(=O)c2ccc(C#CC#Cc3ccc(NCc4occc(=O)c4O)cc3)cc2)CC12CC2 [Compound 49]
S. aureus ATCC 29213
  MIC: > 32 µg/mL
P. aeruginosa 209
  MIC: > 32 µg/mL
E. coli delta tolC
  MIC: < 1 µg/mL
E. coli BW25113
  MIC: 1 to 8 µg/mL (≈ 2.09 to 16.7 µM)
E. coli ATCC 25922
  MIC: 1 to 8 µg/mL (≈ 2.09 to 16.7 µM)
[1]
  MIC: > 32 µg/mL
E. coli imp mutant
  MIC: 1 to 8 µg/mL (≈ 2.09 to 16.7 µM)

## O=C(c1ccc(C#CC#Cc2ccc(NCc3occc(=O)c3O)cc2)cc1)N1CCC[C@H]1CO [Compound 50]
E. coli BW25113
  MIC: 1 to 8 µg/mL (≈ 2.13 to 17.1 µM)
E. coli ATCC 25922
  MIC: 1 to 8 µg/mL (≈ 2.13 to 17.1 µM)

## COC1CN(C(=O)c2ccc(C#CC#Cc3ccc(NCc4occc(=O)c4O)cc3)cc2)C1 [Compound 51]
S. aureus ATCC 29213
  MIC: > 32 µg/mL
P. aeruginosa 209
  MIC: > 32 µg/mL
E. coli delta tolC
  MIC: < 1 µg/mL
E. coli BW25113
  MIC: 1 to 8 µg/mL (≈ 2.2 to 17.6 µM)
E. coli ATCC 25922
  MIC: 1 to 8 µg/mL (≈ 2.2 to 17.6 µM)
[1]
  MIC: > 32 µg/mL
E. coli imp mutant
  MIC: 1 to 8 µg/mL (≈ 2.2 to 17.6 µM)

## N#Cc1ccc(C#Cc2ccc(NCc3occc(=O)c3O)cc2)cc1 [Compound 52]
S. aureus ATCC 29213
  MIC: > 32 µg/mL
P. aeruginosa 209
  MIC: > 32 µg/mL
E. coli delta tolC
  MIC: > 32 µg/mL
E. coli BW25113
  MIC: > 32 µg/mL
E. coli ATCC 25922
  MIC: > 32 µg/mL
[1]
  MIC: > 32 µg/mL
E. coli imp mutant
  MIC: > 32 µg/mL

## O=C(O)c1ccc(C#Cc2ccc(NCc3occc(=O)c3O)cc2)cc1 [Compound 53]
S. aureus ATCC 29213
  MIC: > 32 µg/mL
P. aeruginosa 209
  MIC: > 32 µg/mL
E. coli delta tolC
  MIC: 1 to 8 µg/mL (≈ 2.77 to 22.1 µM)
E. coli BW25113
  MIC: > 32 µg/mL
E. coli ATCC 25922
  MIC: > 32 µg/mL
[1]
  MIC: > 32 µg/mL
E. coli imp mutant
  MIC: > 32 µg/mL
